System: Protein disulfide-thiol interchange activity of HeLa plasma membrane
Assay: Protein disulfide-thiol interchange (RNAse activity with cCMP as substrate)
Type: biochemical, human
Method: Estimation of protein disulfide isomerase- (PDI) like activity. Two methods were employed to determine PDI or PDI-like activity.
In the first method, ribonuclease A activity was measured using a spectrophotometric assay based on cCMP as RNAse substrate. Scrambled RNAse ([…]) was incubated together with 0.45 mM cCMP in 50 Mm Tris-MES buffer, pH 6.5, at 30°C in a final volume of 3 ml. […] A variation of this assay was to preincubate scrambled RNAse with transitional endoplasmic reticulum for 20 min in the presence or absence of 1 µM all-trans retinol (using ethanol as control) and in the presence or absence of 1 µM reduced or oxidized glutathione or a mixture of both. After this 20 min of "reactivation" of RNAse, cCMP was added to a final concentration of 0.45 mM to initiate the reaction. The increase of the absorbance at 296 nm was recorded over 25 min and the concentrations of cCMP were determined (E = 0.19 mM^-1cm^-1). Spectrophotometric measurements were with a Hitachi U3210 spectrophotometer with a thermostatic cell compartment maintained at 30°C with continuous stirring.
Preparation of scrambled RNAse substrate. To prepare the oxidized, denatured RNAse substrate (scrambled RNAse), native RNAse A (Sigma, Type 1-AS from bovine pancreas) (30 µg/ml) was incubated 1 h at 35°C in 50 mM Tris-acetate, pH 8.6, containing 9 M urea and 130 mM DTT.
Protein concentration was estimated from spectrophotometric measurement at 280 nm using native RNAse A as standard. For preparation of scrambled RNAse, the reduced RNAse was diluted to 0.5 mg/ml with 0.1 M acetic acid. Solid urea was then added to a final concentration of 10 M after which 0.1 M sarcosine hydrochloride was added and the pH adjusted to 8.5 with 1 M Tris. The mixture then was incubated in the dark for 2-3 days during which time the protein was randomly oxidized. The scrambled product was recovered by acidification to pH 4 with glacial acetic acid and elution from Sephadex G-25 in 0.1 M acetic acid. Fractions containing protein were pooled, adjusted to pH 8 and stored at 4°C.

COc1cc(CNC(=O)CCCC/C=C/C(C)C)ccc1O [capsaicin]
Protein disulfide-thiol interchange activity: .95 nmoles/min/mg protein

— patent EP0752872B1, “NADH OXIDASE AS A TARGET IN DIAGNOSIS AND THERAPY” (Morré, D. James, priority 1994, dated 1995)
